Results taken from ChEMBL document CHEMBL1136945, “Antimalarial activity of thiosemicarbazones and purine derived nitriles” (Bioorg Med Chem Lett, 2009).

Tests used:
Format in all cases: functional, organism-based
Plasmodium falciparum [1] = experiment: (§1) Antimalarial activity as reduced parasitaemia after 72 hrs against chloroquine-resistant Plasmodium falciparum K1 infected human O+ erythrocytes by DNA stain without pepstatin; conditions: K1, 72 h
Plasmodium falciparum [2] = experiment: as §1; conditions: K1, 72 h; remark: listed apart in the source
Plasmodium falciparum [3] = experiment: Antimalarial activity as reduced parasitaemia after 72 hrs against chloroquine-sensitive Plasmodium falciparum 3D7 infected human O+ erythrocytes by DNA stain without pepstatin; conditions: 3D7, 72 h
Plasmodium falciparum [4] = experiment: Antimalarial activity as reduced parasitaemia after 72 hrs against chloroquine-sensitive Plasmodium falciparum 3D7 infected human O+ erythrocytes by DNA stain with pepstatin; conditions: 3D7, 72 h

SMILES | EC50 (Plasmodium falciparum [1]) | EC50 (Plasmodium falciparum [2]) | EC50 (Plasmodium falciparum [3]) | EC50 (Plasmodium falciparum [4])
NC(=S)N/N=C(/CCc1ccccc1)c1cccc(Cl)c1 | > 30 µM | > 30 µM | > 30 µM | 
NC(=S)N/N=C(/C=C/c1ccccc1)c1cccc(C(F)(F)F)c1 | 30 µM | 30 µM | 30 µM | 30 µM
NC(=S)N/N=C(/CCc1ccccc1)c1ccccc1 | > 30 µM | > 30 µM | > 30 µM | 
NC(=S)N/N=C(/CCc1ccccc1)c1cc(C(F)(F)F)cc(C(F)(F)F)c1 | 30 µM | 30 µM | 30 µM | 30 µM
CCC(C)CNc1nc(C#N)nc2c1NCN2C1CCCC1 (stereo unspecified) | > 30 µM | > 30 µM | > 30 µM | > 30 µM
NC(=S)N/N=C(/c1ccccc1)c1cc(Cl)cc(Cl)c1 | > 30 µM | > 30 µM | > 30 µM | 
CC(Nc1nc(C#N)nc2c1NCN2Cc1ccccc1)c1ccccc1 (stereo unspecified) | > 30 µM | > 30 µM | > 30 µM | 30 µM
CCCCCCNc1nc(C#N)nc2c1NCN2CC1CCCCC1 | > 30 µM | > 30 µM | > 30 µM | > 30 µM
CCCCCCNc1nc(C#N)nc2c1NCN2C1CCCC1 | > 30 µM | > 30 µM | > 30 µM | > 30 µM
CCCCCCNc1nc(C#N)nc2c1NCN2Cc1ccccc1 | > 30 µM | > 30 µM | > 30 µM | > 30 µM
CC(Nc1nc(C#N)nc2c1NCN2C1CCCC1)c1ccccc1 (stereo unspecified) | 30 µM | 30 µM | > 30 µM | > 30 µM
N#Cc1nc(NCc2ccc(Cl)cc2)c2c(n1)N(C1CCCC1)CN2 | > 30 µM | 30 µM | > 30 µM | 30 µM
CCCCN1CNc2c(NCc3cccc(C)c3)nc(C#N)nc21 | > 30 µM | > 30 µM | > 30 µM | > 30 µM
N#Cc1nc(NCc2ccccc2)c2c(n1)N(Cc1ccccc1)CN2 | > 30 µM | > 30 µM | > 30 µM | > 30 µM
CCCCN1CNc2c(NCc3ccccc3)nc(C#N)nc21 | > 30 µM | > 30 µM | > 30 µM | > 30 µM
CCCCN1CNc2c(NCc3ccc(C)cc3)nc(C#N)nc21 | > 30 µM | > 30 µM | > 30 µM | > 30 µM
CCCCN1CNc2c(NCc3ccc(OC)cc3)nc(C#N)nc21 | > 30 µM | > 30 µM | > 30 µM | > 30 µM
Cc1ccc(CNc2nc(C#N)nc3c2NCN3CCCO)cc1 | > 30 µM | > 30 µM | > 30 µM | > 30 µM
CCCCN1CNc2c(NCc3ccc(F)cc3)nc(C#N)nc21 | > 30 µM | > 30 µM | > 30 µM | > 30 µM
N#Cc1nc(NCc2ccc(Cl)cc2)c2c(n1)N(CC1CCCCC1)CN2 | > 30 µM | > 30 µM | > 30 µM | > 30 µM
N#Cc1nc(NCc2ccccc2)c2c(n1)N(C1CCCCO1)CN2 (stereo unspecified) | > 30 µM | > 30 µM | > 30 µM | > 30 µM
CCCCN1CNc2c(NCCc3ccccc3)nc(C#N)nc21 | > 30 µM | > 30 µM | > 30 µM | > 30 µM
N#Cc1nc(NCc2ccc(F)cc2)c2c(n1)N(CCCCO)CN2 | > 30 µM | > 30 µM | > 30 µM | > 30 µM

SMILES | EC50 (Plasmodium falciparum [1]) | EC50 (Plasmodium falciparum [2]) | EC50 (Plasmodium falciparum [3]) | EC50 (Plasmodium falciparum [4])
N#Cc1nc(NCc2ccc(F)cc2)c2c(n1)N(Cc1ccccc1)CN2 | > 30 µM | > 30 µM | > 30 µM | > 30 µM
N#Cc1nc(NCCc2ccccc2)c2c(n1)N(Cc1ccccc1)CN2 | > 30 µM | > 30 µM | > 30 µM | > 30 µM
N#Cc1nc(NCCc2ccccc2)c2c(n1)N(c1cccnc1)CN2 | > 30 µM | > 30 µM | > 30 µM | > 30 µM
COc1ccc(CN2CNc3c(NCc4ccccc4)nc(C#N)nc32)cc1 | > 30 µM | > 30 µM | > 30 µM | > 30 µM
N#Cc1nc(NCc2ccc(Cl)cc2)c2c(n1)N(CCCCO)CN2 | > 30 µM | > 30 µM | > 30 µM | > 30 µM
CC(C)Oc1ccccc1-c1cccc(CNc2nc(C#N)nc3c2ncn3CCCO)c1 | 30 µM | 30 µM | 30 µM | 30 µM
CCC(C)CNc1nc(C#N)nc2c1NCN2Cc1ccccc1 (stereo unspecified) | > 30 µM | > 30 µM | > 30 µM | 30 µM
Cc1cccc(CNc2nc(C#N)nc3c2NCN3C2CCCC2)c1 | > 30 µM | > 30 µM | > 30 µM | > 30 µM
CCCCN1CNc2c(NCc3ccc(Br)cc3)nc(C#N)nc21 | 30 µM | > 30 µM | > 30 µM | 30 µM
CCCCN1CNc2c(NCc3ccc(Cl)cc3)nc(C#N)nc21 | 30 µM | > 30 µM | > 30 µM | 30 µM
CCCCN1CNc2c(NC(C)c3ccccc3)nc(C#N)nc21 (stereo unspecified) | 30 µM | 30 µM | > 30 µM | 30 µM
N#Cc1nc(NCc2ccc(-c3ccsc3)cc2)c2ncn(CCCO)c2n1 | 30 µM | 30 µM | 30 µM | 30 µM
Cc1ccc(/C(=N/NC(N)=S)c2cc(C(F)(F)F)cc(C(F)(F)F)c2)cc1 | 30 µM | 30 µM | 30 µM | 30 µM
Cc1ccccc1-c1cccc(CNc2nc(C#N)nc3c2ncn3CCCO)c1 | 30 µM | 30 µM | 30 µM | 30 µM
COc1ccc(CNc2nc(C#N)nc3c2NCN3Cc2ccccc2)cc1 | > 30 µM | > 30 µM | > 30 µM | > 30 µM
Cc1ccc(CNc2nc(C#N)nc3c2NCN3Cc2ccccc2)cc1 | > 30 µM | > 30 µM | > 30 µM | > 30 µM
N#Cc1nc(NCc2ccc(-c3cccs3)cc2)c2ncn(CCCO)c2n1 | 30 µM | 30 µM | 30 µM | 30 µM
N#Cc1nc(NCc2ccccc2)c2c(n1)N(CCCO)CN2 | > 30 µM | > 30 µM | > 30 µM | > 30 µM
N#Cc1nc(NCc2ccc(Br)cc2)c2c(n1)N(Cc1ccccc1)CN2 | 30 µM | 30 µM | > 30 µM | 30 µM
N#Cc1nc(NCc2ccccc2)c2c(n1)N(Cc1cccc(C(F)(F)F)c1)CN2 | 30 µM | 30 µM | 30 µM | 30 µM
COc1ccc(CNc2nc(C#N)nc3c2NCN3C2CCCC2)cc1 | > 30 µM | > 30 µM | > 30 µM | > 30 µM
N#Cc1nc(NCc2ccc(Cl)cc2)c2c(n1)N(Cc1ccccc1)CN2 | > 30 µM | 30 µM | > 30 µM | 30 µM
CC(=O)Nc1ccc(CNc2nc(C#N)nc3c2ncn3CCCO)cc1 | 30 µM | 30 µM | 30 µM | 30 µM
